# Data: US9734283B2, “Genomic features associated with epigenetic control regions and transgenerational inheritance of epimutations” (priority 2011, dated 2017)
# System: CD-1 and 129 strain mice
# Assay: Transgenerational pathology analysis of adult onset disease (testis, prostate, kidney)
# Assay type: in vivo, mouse
# Experimental: The experimental design involved exposing gestating female inbred 129 strain and outbred CD-1 strain mice to daily intraperitoneal (IP) injections of vehicle (DMSO) (control) or vinclozolin at two doses, 100 mg/kg/day (V1) or 200 mg/kg/day (V2), between embryonic day 7-13 of gestation. In addition, a comparison was used with flutamide IP injections at a 20/mg/kg/day dose. The F1 generation males and females from different litters were bred to generate the F2 generation animals and F2 generation males and females from different litters were bred to generate the F3 generation animals, see Methods below. No sibling or cousin breedings occurred to avoid any inbreeding artifacts. Selected F1, F2 and F3 generation animals from postnatal 90 (P90) or 300 (P300) days of age were analyzed for testis, sperm and other pathologies as previously described.^11, 20, 21
# Timed pregnant inbred 129 mice were given intraperitoneal injections with vinclozolin (100 mg/kg·day, 99% pure; ChemService, West Chester, Pa.), flutamide (20 mg/kg·day, Sigma, St. Louis, Mo.) or DMSO in sesame oil (vehicle) as controls, while timed pregnant outbred CD-1 mice were given intraperitoneal injections (IP) with vinclozolin doses: 100 mg/kg·day (V1) or 200 mg/kg·day (V2) or DMSO in sesame oil as controls.^21 Mice were given injections from embryonic day (E) E7-E13, with plug date equal to day 0. Controls were injected with vehicle (DMSO) dose and were matched with vinclozolin or flutamide treatment animals within the same mouse strain at the time of injection and were analyzed together throughout all three generations. The number of treated gestating females used were: for mouse 129 strain (3 controls and 4 vinclozolin treated); for mouse 129 strain flutamide 20 mg/kg/day dose (3 controls and 3 flutamide treated); and for mouse CD-1 strain (4 control and 3 vinclozolin treated (100 mg/kg/day (V1), 3 vinclozolin 200 mg/kg/day (V2)). F1 postnatal (P)P90 males and females from different litters of control, vinclozolin and flutamide treatment groups were bred to generate the F2 generation. F2 generation mice were bred to generate the F3 generation. Breedings were carefully monitored to eliminate any sibling or cousin breeding to remove potential phenotypes as a result of inbreeding. Male mice were collected and analyzed between P60-P90 (P90) for all generations and treatment groups. The number of P90 males collected for replicates for the mouse 129 strain vinclozolin treatment group (i.e. n value) were: for F1 (8 control, 11 vinclozolin); for F2 (11 control, 22 vinclozolin); and for F3 (11 control, 11 vinclozolin). […]
# [1] = F3 generation vinclozolin lineage CD-1 mice, P300, p<0.02 vs controls
smiles,measurement,setting,value
"C=CC1(C)OC(=O)N(c2cc(Cl)cc(Cl)c2)C1=O (racemic) [vinclozolin, (RS)-3-(3,5-dichlorophenyl)-5-methyl-5-vinyl-1,3-oxazolidine-2,4-dione]",animals that developed at least one disease,[1],75%
same,animals with two or more disease states,[1],34%
same,"proportion of mice exhibiting abnormal disease-like characteristics in testis, prostate, and kidney tissues","aged (P300) F3 generation CD-1 strain, vinclozolin lineage vs control",increases
same,"adult onset disease of the prostate, kidney, testis or ovaries","inbred 129 strain mice, between treatment groups",no observable differences
